Earlier results as cited in patent US7718667B2, “Fused aminopiperidines as dipeptidyl peptidase-IV inhibitors for the treatment or prevention of diabetes” (Merck Sharp & Dohme Corp., priority 2004, dated 2010).

How the values were obtained:
DPP-IV = biological target: T1, DPP-IV (Homo sapiens, UniProt P27487)
T1 construct: GRF is rapidly degraded in plasma to GRF[3-44]; from tissue

mouse = settings: cyclophosphamide-induced neutropenia
rats = settings: survival doubled from day 7

T1 sequence (P27487 39-766 limits assumed, species assumed): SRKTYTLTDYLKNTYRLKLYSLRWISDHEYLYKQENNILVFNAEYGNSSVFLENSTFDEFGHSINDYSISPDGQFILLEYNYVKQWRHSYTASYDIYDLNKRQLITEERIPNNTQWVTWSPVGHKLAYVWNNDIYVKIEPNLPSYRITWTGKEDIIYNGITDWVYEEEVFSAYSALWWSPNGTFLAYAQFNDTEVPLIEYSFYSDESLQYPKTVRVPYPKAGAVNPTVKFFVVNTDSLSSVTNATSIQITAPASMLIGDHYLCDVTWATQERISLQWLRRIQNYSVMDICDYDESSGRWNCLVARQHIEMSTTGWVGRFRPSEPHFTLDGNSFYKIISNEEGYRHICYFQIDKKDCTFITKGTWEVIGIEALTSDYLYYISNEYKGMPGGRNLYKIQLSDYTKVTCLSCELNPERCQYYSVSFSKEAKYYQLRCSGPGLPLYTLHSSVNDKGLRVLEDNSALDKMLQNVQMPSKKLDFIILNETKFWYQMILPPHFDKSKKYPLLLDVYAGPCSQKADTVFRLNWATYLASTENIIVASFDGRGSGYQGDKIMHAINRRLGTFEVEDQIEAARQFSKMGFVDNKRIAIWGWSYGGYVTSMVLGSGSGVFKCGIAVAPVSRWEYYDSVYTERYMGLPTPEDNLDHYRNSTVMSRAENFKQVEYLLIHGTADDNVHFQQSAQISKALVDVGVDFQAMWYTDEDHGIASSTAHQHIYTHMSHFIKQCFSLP

In the case of CC[C@H](C)[C@H](N)C(=O)N1CCC[C@H]1C(=O)N[C@H](C(=O)O)[C@@H](C)CC [diprotin A], the “degradation of GRF in plasma to GRF[3-44]” value (DPP-IV) is given as “prevented”.

For CC(C)[C@H](N)C(=O)N1CCC[C@H]1B(O)O [Val-Boro-Pro], the hematopoiesis (mouse) is listed as “stimulated hematopoiesis”.

In the case of CC(C)N1CCC(c2ccccc2)(c2ccccc2)CC1 [Prodipine, Pro-Pro-diphenyl-phosphonate], the cardiac allograft survival (rats) is given as 14 day.
